What all share (assay type): physicochemical
The nature of data set [1]: Physical properties of the fluids (boiling point, gel temperature, pour point). The following applies: for boiling point: ambient / atmospheric pressure. The text has this:
The pumping power calculation was made for various fluorinated fluids and is presented in TABLE 5, along with various physical properties of the fluids.

Data set [2] in a line: Freezing or pour point measurement. The following applies: 1 ml sample cooled with liquid nitrogen; for pour point: transparent glassy solid. On the procedure:
Freezing or pour points were measured for 3 related hydrofluoroether samples:
The freeze and or pour points were measured by cooling a 1 ml sample contained in a double walled glass tube. The outer tube was sealed at both ends and had side ports for the addition of nitrogen gas. The inner tube was sealed at one end. The annular space between the tubes was purged with dry nitrogen and sealed. The sample was introduced into the inner tube and sealed with a septum. The temperature of the sample contained in the inner tube was monitored with an Omega Model DP-41 (available from Omega Engineering, Inc., Stamford, Conn.) resistance thermal device inserted into the fluid. The apparatus was lowered into the dewar flask of liquid nitrogen.
If the material froze to a white solid, a freezing point is reported. If instead the material became a transparent glassy solid, a pour point is reported.
The resistance thermal device was not calibrated at temperatures less than −100° C.

The nature of data set [3]: Liquid density, Anton-Parr densitometer. As to the method: The liquid density of n-C3F7CF(OC2H5)CF(CF3)2 was measured from 10° C. to 90° C. using an Anton-Parr Model DMA58 densitometer with a DMA602 external cell. Densities below this temperature were obtained by linear extrapolation of the available data.
Data set [4] in a line: Specific heat by differential scanning calorimetry (ASTM E 1269-90). On the procedure: The specific heat of n-C3F7CF(OC2H5)CF(CF3)2 was measured by differential scanning calorimetry according to ASTME 1269-90 over a temperature range of −50° C. to 50° C.
For orientation: Differential scanning calorimetry records heat flow against a reference as temperature is scanned.

Data set [5] can be described thus: Kinematic viscosity, Cannon-Fenske viscometer. As to the method:
The kinematic viscosity of n-C3F7CF(OC2H5)CF(CF3)2 was measured using a Cannon-Fenske viscometer over the temperature range −80° C. to 23° C. Data were regressed using methods outlined in ASTM Standard D 341-77.

The nature of data set [6]: Distillation curve, head temperature vs. percent boiled. To be noted: until over 95% of the fluid had boiled over. On the procedure: H-GALDEN™ ZT-130 fluid (199 grams) was distilled from a 250 mL boiling flask using a 12 inch (30 cm) downward slanting shell-in-tube condenser into another 250 mL receiver flask. The weight of the fluid captured by the receiver was continuously monitored using an Ohaus Model TP4000D digital balance (available from Ohaus Corp., Florham Park, N.J.). The head temperature of the distillation apparatus was monitored using a type-J thermocouple. Both weight and temperature measurements were recorded using a LABVIEW SCXI automated data acquisition system (available from National Instruments Corp., Austin, Tex.) at regular intervals during the course of the distillation, which took 20.9 minutes.
The same experiment was repeated except that 211.9 g of n-C3F7CF(OC2H5)CF(CF3)2 was used in place of the H-GALDEN™ ZT-130 fluid and the distillation took place over an 11.5 minute time interval.
Thus, better temperature and viscosity control is possible when the n-C3F7CF(OC2H5)CF(CF3)2 is employed as a wide temperature range heat-transfer fluid.

Data set [7] in a line: Thermal conductivity, transient hot-wire cell (ASTM D 2717-86). To be noted: value used in place of n-C3F7CF(OC2H5)CF(CF3)2. On the procedure: The thermal conductivity of n-C3F7CF(OC2H5)CF(CF3)2 was not measured. Instead, experimentally-determined values for the hydrofluoroether C4F9OC2H5 were used. These values were determined using a transient, hot-wire thermal conductivity cell over the temperature range of −50° C. to +50° C., according to ASTM D 2717-86. A platinum wire was used in the measurements. […] The thermal conductivity at 25° C. was 0.066 W/m° C.

One may read the boiling point as the temperature at which the vapour pressure of the liquid equals the pressure above it. `FC(F)(F)C(F)(F)C(F)(F)N(C(F)(F)C(F)(F)C(F)(F)F)C(F)(F)C(F)(F)C(F)(F)F` [FC-3283, perfluoro(tripropylamine)]: in data set [1], the Gel temp is −50 °C, the “Initial Boiling point” value is 130 °C, the pour point was −50 °C and the boiling point entry was “about 130 °C”.
Compound `CCOC(F)(C(F)(F)C(F)(F)F)C(F)(C(F)(F)F)C(F)(F)F` (stereo not drawn) [n-C2F5CF(OC2H5)CF(CF3)2] registered a freeze point in data set [2] (froze to a white solid) of −70 °C.
Consider `CCOC(F)(C(F)(F)C(F)(F)C(F)(F)F)C(F)(C(F)(F)F)C(F)(F)F` (stereo not drawn) [n-C3F7CF(OC2H5)CF(CF3)2, 3-ethoxy-perfluoro(2-methylhexane)], for which the “Liquid Density at 25° C.” value in data set [3] came to 1614 kg/m^3. For the same compound, the “Specific Heat at 25° C.” value in data set [4] was 1128 J/kg° C. Further, the “Kinematic Viscosity at 25° C.” value in data set [5] was 0.77 centistokes. In data set [1], the Gel temp is −100 °C, the “Initial Boiling point” value came to 128 °C and the boiling point came to 128 °C. Moreover, the pour point entry in data set [2] is “less than −100 °C”. Moreover, in data set [6], the “change of boiling point during distillation” value is given as “remained unchanged”.
As to `CCOC(F)(C(F)(F)C(F)(F)C(F)(F)C(F)(F)F)C(F)(C(F)(F)F)C(F)(F)F` (stereo not drawn) [n-C4F9CF(OC2H5)CF(CF3)2], the pour point in data set [2] was −83 °C.
On to C4F9OC2H5, for which, in data set [7], the “thermal conductivity at 25° C.” value came out at 0.066 W/m° C.

For the origin of these results see US6374907B1, “Hydrofluoroether as a heat-transfer fluid” (3M Innovative Properties Company, priority 1999, dated 2002).
